These results are taken from US12570655B2, “Cysteine covalent modifiers of AKT1 and uses thereof” (Terremoto Biosciences, Inc., priority 2023, dated 2026).

Molecules are shown by their SMILES. Like-named read-outs stand apart in the source and are kept apart here.

Holding throughout (assay type): cell-based
In one assay the target is T1, AKT2 (Homo sapiens, UniProt P31751).
T1 construct: expressed in transfected cells; host or cells: HEK293
Put plainly: Live cell AKT2 target engagement by NanoBRET competitive probe displacement. Particulars: HEK293 cells transfected with kinase-NanoLuciferase fusion, 2 h at 37° C. In short, it runs like this: (§1)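 Live-cell competitive tracer displacement in HEK293 expressing NanoLuciferase-tagged kinase. Compound and ATP-competitive tracer (~EC50) are co-incubated 2 h at 37 °C; BRET (E600/E460) gives IC50.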
(Bioluminescence resonance energy transfer reports proximity on the nanometre scale.)

The target of another assay is T2, AKT1 WT (Homo sapiens, UniProt P31749).
T2 construct: expressed in transfected cells; host or cells: HEK293
T2 sequence (P31749 whole entry): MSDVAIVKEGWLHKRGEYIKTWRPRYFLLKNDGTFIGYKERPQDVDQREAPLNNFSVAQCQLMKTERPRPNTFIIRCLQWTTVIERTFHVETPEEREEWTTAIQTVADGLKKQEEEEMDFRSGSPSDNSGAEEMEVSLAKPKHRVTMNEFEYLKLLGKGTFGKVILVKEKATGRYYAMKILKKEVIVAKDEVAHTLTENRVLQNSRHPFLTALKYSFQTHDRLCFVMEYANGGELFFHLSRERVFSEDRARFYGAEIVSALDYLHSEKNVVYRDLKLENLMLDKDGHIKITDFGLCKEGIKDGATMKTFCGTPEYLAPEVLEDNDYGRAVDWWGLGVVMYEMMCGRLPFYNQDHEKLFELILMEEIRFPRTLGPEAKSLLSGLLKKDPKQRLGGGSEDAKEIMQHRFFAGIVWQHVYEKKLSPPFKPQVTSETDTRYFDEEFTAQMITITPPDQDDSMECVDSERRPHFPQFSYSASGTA
Put plainly: Live cell AKT1 WT target engagement by NanoBRET competitive probe displacement. The conditions noted are these: HEK293 cells transfected with kinase-NanoLuciferase fusion, 2 h at 37° C. In short, it runs like this: as §1

The target in a further assay is T3, AKT1 E17K (Homo sapiens, UniProt P31749, E17K).
T3 construct: expressed in transfected cells; host or cells: HEK293
T3 sequence (P31749 whole entry E17K): as the sequence (P31749 whole entry) above, with E17K counted along it
Put plainly: Live cell AKT1 E17K target engagement by NanoBRET competitive probe displacement. The conditions noted are these: HEK293 cells transfected with kinase-NanoLuciferase fusion, 2 h at 37° C. In short, it runs like this:
as §1

Assay [1] relates to LAPC4 prostate cancer cells. Put plainly: Antiproliferative effects in LAPC4 cells (CellTiter Glo). The conditions noted are these: LAPC4 cells (AKT1 E17K allele), read-out: LAPC4 proliferation IC50. The gist of the method:
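Cells grown in IMDM supplemented with 12% FBS plus 1% P/S were treated for 72 h with DMSO-dissolved compounds. ATP-based luminescence was fitted to a log(inhibitor) versus response Hill model, giving IC50.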
(In general: In ATP-based viability assays light output follows the ATP content of the culture.)

T1 sequence (P31751 whole entry): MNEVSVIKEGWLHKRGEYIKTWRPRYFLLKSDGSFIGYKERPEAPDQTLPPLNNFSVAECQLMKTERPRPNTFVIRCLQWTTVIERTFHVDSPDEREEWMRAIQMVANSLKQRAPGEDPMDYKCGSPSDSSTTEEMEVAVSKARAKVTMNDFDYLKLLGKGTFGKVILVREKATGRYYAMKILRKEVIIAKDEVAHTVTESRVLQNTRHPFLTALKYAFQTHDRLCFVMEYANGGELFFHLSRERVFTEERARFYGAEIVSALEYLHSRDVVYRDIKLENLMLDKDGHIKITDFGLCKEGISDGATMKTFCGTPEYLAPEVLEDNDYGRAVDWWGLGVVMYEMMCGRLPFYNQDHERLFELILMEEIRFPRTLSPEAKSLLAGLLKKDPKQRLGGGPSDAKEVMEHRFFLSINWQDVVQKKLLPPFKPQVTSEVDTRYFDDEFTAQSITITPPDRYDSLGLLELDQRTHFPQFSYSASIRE

Take `C=CC(=O)N1CCC(N[C@@H]2c3ccc(-n4c(-c5cccnc5N)nc5ccc(-n6cccn6)nc54)cc3CC2F)C(C)C1` (single isomer, unassigned) [Example 290, 1-[(3*,4*)-4-{[(1R,2*)-5-[2-(2-aminopyridin-3-yl)-5-(pyrazol-1-yl)imidazo[4,5-b]pyridin-3-yl]-2-fluoro-2,3-dihydro-1H-inden-1-yl]amino}-3-methylpiperidin-1-yl]prop-2-en-1-one]: the IC50 is 0.122 µM at AKT2, 0.666 µM on AKT1 WT, 0.0194 µM on AKT1 E17K and 0.455 µM in assay [1] (72 h).
Take `C=CC(=O)N1CCN(NC2CCc3cc(-n4c(-c5cccnc5N)nc5ccc(-n6ccc(F)n6)nc54)ccc32)CC1` (single isomer, unassigned) [Example 200, 1-(4-{[(1*)-5-[2-(2-aminopyridin-3-yl)-5-(3-fluoropyrazol-1-yl)imidazo[4,5-b]pyridin-3-yl]-2,3-dihydro-1H-inden-1-yl]amino}piperazin-1-yl)prop-2-en-1-one]: the IC50 is 0.0801 µM on AKT2, 0.281 µM at AKT1 WT, 0.0159 µM on AKT1 E17K and 0.317 µM in assay [1] (72 h).
On to `C=CC(=O)N1CCC(N[C@@H]2c3ccc(-n4c(-c5cccnc5N)nc5ccc(-n6ccc(C7CC7)n6)nc54)cc3CC2F)CC1` (single isomer, unassigned) [Example 298, 1-(4-(((1R,2*)-5-(2-(2-aminopyridin-3-yl)-5-(3-cyclopropyl-1H-pyrazol-1-yl)-3H-imidazo[4,5-b]pyridin-3-yl)-2-fluoro-2,3-dihydro-1H-inden-1-yl)amino)piperidin-1-yl)prop-2-en-1-one], for which the IC50 came to 0.0573 µM on AKT2, 0.294 µM at AKT1 WT, 0.0142 µM on AKT1 E17K and 0.314 µM in assay [1] (72 h).
Turning to `C=CC(=O)N1CCC(N[C@H]2CCc3cc(-n4c(-c5cccnc5N)nc5ccc(C)nc54)ccc32)CC1` [Example 50, (S)-1-(4-((5-(2-(2-aminopyridin-3-yl)-5-methyl-3H-imidazo[4,5-b]pyridin-3-yl)-2,3-dihydro-1H-inden-1-yl)amino)piperidin-1-yl)prop-2-en-1-one], the IC50 on AKT2 turned out to be 0.348 µM; at AKT1 WT, 0.0176 µM; on AKT1 E17K, 0.0951 µM; in assay [1] (Homo sapiens, LAPC4, 72 h) it was 0.161 µM.
In the same order, the values of `C=CC(=O)Nc1cc(F)ccc1C(=O)N[C@H]1CCc2cc(-n3c(-c4cccnc4N)nc4ccc(-n5cccn5)nc43)ccc21` [Example 21, (S)-2-acrylamido-N-(5-(2-(2-aminopyridin-3-yl)-5-(1H-pyrazol-1-yl)-3H-imidazo[4,5-b]pyridin-3-yl)-2,3-dihydro-1H-inden-1-yl)-4-fluorobenzamide] are 0.0748 µM, 0.0226 µM, 0.0328 µM and 0.0885 µM.
In the same order, the values of `CN(C)C/C=C/C(=O)Nc1ccccc1C(=O)N[C@H]1CCc2cc(-n3c(-c4cccnc4N)nc4ccc(-n5cccn5)nc43)ccc21` [Example 16, (S,E)-N-(5-(2-(2-aminopyridin-3-yl)-5-(1H-pyrazol-1-yl)-3H-imidazo[4,5-b]pyridin-3-yl)-2,3-dihydro-1H-inden-1-yl)-2-(4-(dimethylamino)but-2-enamido)benzamide] are 0.0678 µM, 0.0113 µM, 0.0527 µM and 0.183 µM.
As for `C=CC(=O)N1CCC(NC2CCc3cc(-n4c(-c5cccnc5N)nc5ccc(C6CC6(F)F)nc54)ccc32)CC1` (single isomer, unassigned) [Example 245, 1-(4-(((*)-5-(2-(2-aminopyridin-3-yl)-5-((*)-2,2-difluorocyclopropyl)-3H-imidazo[4,5-b]pyridin-3-yl)-2,3-dihydro-1H-inden-1-yl)amino)piperidin-1-yl)prop-2-en-1-one], the IC50 on AKT2 is 0.354 µM; at AKT1 WT, 0.715 µM; on AKT1 E17K it was 0.0376 µM; in assay [1] (72 h), 0.526 µM.
